ChEMBL document CHEMBL4130348, “Structure-activity relationship investigation for benzonaphthyridinone derivatives as novel potent Bruton's tyrosine kinase (BTK) irreversible inhibitors” (Eur J Med Chem, 2017)

Target: Tyrosine-protein kinase BTK (Homo sapiens, UniProt Q06187)
Experiment: Irreversible inhibition of recombinant full length His-tagged human BTK expressed in baculovirus expression system using poly (4:1 Glu, Tyr) as substrate assessed as ratio of Kinact to Ki preincubated for 2 to 60 mins followed by substrate addition measured after 1 hr by ADP-glo assay

Sequence of Tyrosine-protein kinase BTK (Q06187 whole entry): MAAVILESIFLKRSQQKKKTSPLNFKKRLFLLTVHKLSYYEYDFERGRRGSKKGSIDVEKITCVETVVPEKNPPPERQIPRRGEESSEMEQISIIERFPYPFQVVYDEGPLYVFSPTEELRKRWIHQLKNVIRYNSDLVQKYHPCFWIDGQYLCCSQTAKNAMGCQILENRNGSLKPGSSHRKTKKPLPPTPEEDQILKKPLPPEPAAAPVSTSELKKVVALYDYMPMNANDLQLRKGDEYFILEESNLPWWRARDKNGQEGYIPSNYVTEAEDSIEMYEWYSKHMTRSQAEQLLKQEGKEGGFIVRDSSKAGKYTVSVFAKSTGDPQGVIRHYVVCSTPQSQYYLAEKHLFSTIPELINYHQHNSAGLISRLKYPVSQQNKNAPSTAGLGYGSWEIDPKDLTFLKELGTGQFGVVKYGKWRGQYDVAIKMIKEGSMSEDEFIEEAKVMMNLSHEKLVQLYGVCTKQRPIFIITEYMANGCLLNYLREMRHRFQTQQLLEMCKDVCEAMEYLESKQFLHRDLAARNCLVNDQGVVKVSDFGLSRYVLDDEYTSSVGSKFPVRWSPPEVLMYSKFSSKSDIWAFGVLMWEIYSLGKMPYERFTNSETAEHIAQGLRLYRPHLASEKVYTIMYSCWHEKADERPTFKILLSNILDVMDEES

Ratio: 0.01 µM⁻¹ s⁻¹
SMILES: C=CC(=O)Nc1cc(-n2c(=O)ccc3cnc4ccc(-n5cccn5)cc4c32)ccc1C
